In a melting point compilation (Tetko et al.; mined from patent text by program, amines drawn as free bases though some values may be those of a salt):

melting point | Compound
114 to 116 °C | CCCC(CCC)Nc1nc(C)nc(Oc2c(Br)cc(C(C)(C)O)cc2OC)c1N
168 to 169 °C | CC(C)C(=C=O)NC(=O)Nc1ccc([N+](=O)[O-])cc1O
117 to 118 °C | CCOc1ccn([C@H]2CS[C@@H](CO)O2)c(=O)n1 (relative stereo)
221 to 223 °C | O=C1c2c(O)cc(O)cc2OC(c2ccc(O)cc2)C1O (stereo not drawn)
78 to 79 °C | CN1CCN(C(=O)CCCCCNC(=O)c2cc(OCc3ccccc3)ccc2OCc2ccccc2)CC1
129 to 131 °C | CCN1CC(=O)N(C)c2cc([N+](=O)[O-])c(OC)cc2C1
109 to 110 °C | COCOc1cc(OCOC)c2c(=S)cc(C)oc2c1
101 to 102 °C | CCCCCCCCCCCCCCCCCCOc1cc(OCCCOc2ccc(S(C)(=O)=O)cc2)cc(C(=O)OC)c1
151 to 152 °C | OC(CN1CCC(O)(Cc2ccccc2)CC1)c1ccc(Cl)cc1 (stereo not drawn)
71 to 72 °C | CCC(C)CC(=O)OC1COC(OC(=O)CC(C)CC)CO1 (stereo not drawn)
231 to 235 °C | CS(=O)(=O)c1c(C(=O)O)ccc(Cl)c1Oc1ccccc1
> 300 °C | CCOC(=O)c1sc2[nH]c(=O)c(=O)[nH]c2c1CC
204 to 206 °C | O=C(O)c1cccc2nc(OCC(F)(F)F)n(Cc3ccc(-c4ccccc4-c4nnn[nH]4)cc3)c12
114 to 115 °C | CC(C)(Cl)C(CO)=NO
115 to 116 °C | Cc1cccc(Cl)c1CCCOc1oc(-n2ccnc2C)nc1-c1ccc(Cl)cc1
249 to 252 °C | Cc1ccc(Nc2c(N)cc(C(=O)O)cc2S(N)(=O)=O)cc1
261 to 262 °C | O=C(O)c1ccc(NC(=O)c2ccc3c(c2)SCCCC3)cc1
133 to 134 °C | O=C(N[C@@H](Cc1ccccc1)C(=O)O)C(CS)C(F)(F)F (stereo partly drawn)
198 to 203 °C | Cc1ccc(N2C(=O)C(O)=C(C(=O)c3ccc(C(C)C)cc3)C2c2ccc(N3CCN(C)CC3)cc2)nn1 (stereo not drawn)
177 to 178 °C | COc1ccccc1N1CCN(C(=O)Nc2nc3ccccc3nc2OC)CC1
124 to 126 °C | Oc1ccccc1NCCCCCCBr
75 to 77 °C | O=C(NC/C=C\COc1cc(CN2CCCCC2)ccn1)c1ccc(Cl)s1
262 °C | c1ccc(-c2ncc(-c3cnc(-c4ccccn4)[nH]3)cn2)cc1

melting point | Compound
122 to 125 °C | COc1nc2cc(F)cc(CBr)c2nc1OC
95 to 96 °C | COCCCNC(=O)c1ccc(C(=O)N2CCN(c3ncccc3NC(C)C)CC2)nc1
284 to 285 °C | CCCc1nc2cc3c(cc2[nH]1)NC(=O)C3(C)C
181 to 183 °C | Cc1cc(C)c(C(=O)ON2C(C)(C)c3ccccc3C2(C)C)c(C)c1
168 °C | CC(C)(C)c1ccc(CC2CCN(C(=O)C(=O)Nc3ccc4[nH]c(=O)oc4c3)CC2)cc1
129 °C | COC(=O)C1=C(C(=O)OC)c2c(sc3ccccc23)CC1
135 to 136 °C | CCC(=O)c1cc(-c2ccc(OC)cc2)no1
216 to 220 °C | CCCCc1nn(CC(F)(F)F)c(C(=O)O)c1Cc1ccc2oc(-c3ccccc3-c3nnn[nH]3)c(Br)c2c1
184 to 185 °C | O=C(O)c1ncn2c1CSC2
217 to 220 °C | CCc1c2n(c3ccccc13)C(=O)C(=Cc1ncn(C(c3ccccc3)(c3ccccc3)c3ccccc3)c1C)CC2
187 to 190 °C | CC(=O)Nc1ccc2c(c1)C(=O)C(=O)N2CCN(C(C)C)C(C)C
243 to 244 °C | O=C(O)CCc1cccc(-c2nc(=O)c3ccccc3s2)n1
180 to 182 °C | COc1ccc(CCC2CN(C3=Nc4cc(F)ccc4Nc4sc(C)cc43)CCN2C)cc1 (stereo not drawn)
145 °C | CC(=O)c1cc2ccccc2cc1C(=O)O
139 to 141 °C | Oc1ccc2cc(OCCN3CCC(Cc4ccccc4)CC3)ccc2c1
148 to 150 °C | OCCOc1nc(N2CCCCC2)c2nc(OCCO)nc(N3CCCCC3)c2n1
228 to 230 °C | O=C(NC(=O)c1c(Cl)cccc1Cl)Nc1ccc(C(F)(F)F)cn1
111 to 112 °C | O=c1[nH]cc(C2CCCCC2)c2ccccc12
281 °C | CCn1c(N)c(C(N)=O)c(=O)c2cnc(Nc3ccc(C(=O)N4CCN(C)CC4)cc3)nc21
108 °C | O=C1Nc2ccccc2OC1CCCN1CCC(Cc2ccccc2)CC1 (stereo not drawn)
145 to 147 °C | Cn1ncc(NCCN2CCC(c3noc4cc(F)ccc34)CC2)c(Cl)c1=O
159 to 161 °C | O=C(Nc1ccc(Oc2ccccc2)cc1)N1CCN(c2ccnc3cc(Cl)ccc23)CC1
95 °C | CCCCOc1ccc(C(=O)CCCCC(=O)O)cc1

melting point | Compound
70 to 88 °C | CCCN(CCC)CCc1ccc(OCc2ccccc2)c(NC(N)=O)c1
88 to 91 °C | CS(=O)(=O)c1ccc(-n2cc(-c3ccc(F)cc3)nc2-c2ccccn2)cc1
246 °C | N#Cc1c(N)ccc2cc(Cl)cnc12
86 to 87.5 °C | O[C@@H]1CN(Cc2ccccc2)C[C@@H]1Oc1cccc(Cl)c1 (relative stereo)
73 to 76 °C | O=C(OCc1cc(F)nc(F)c1F)c1ccccc1
258 to 260 °C | O=C(O)c1cccc(-c2ccc3ncn(Cc4ccc(Cl)cc4Cl)c3n2)c1
251 to 253 °C | CNC1(C)CN(c2cc3c(cc2F)c(=O)c(C(=O)O)cn3C(C)(C)C)C1
225 °C | COC(=O)Nc1nc2cnc3ccccc3c2n1CC(C)(C)O
292 to 293 °C | COc1ccc(C(=O)Nc2c(Cl)cncc2Cl)c2[nH]cnc12
134 to 137 °C | O=C1c2c(OCc3ccccc3)cccc2-c2nn(CCN(CCO)Cc3ccccc3)c3ccc(NCCNCCO)c1c23
> 330 °C | O=C1Cc2c([nH]c3cc(Cl)cc(Cl)c23)-c2ncccc2N1
248 to 249 °C | O=C(NC(Cc1ccc(OCc2ccccc2)cc1)C(=O)O)c1cn2ccc(-c3ccc(Cl)cc3)cc2n1 (stereo not drawn)
135 to 138 °C | CC=CCn1c(C)c(C)c2cnnc(NCc3ccc(F)cc3)c21
147 to 148 °C | COc1ccc(C=Cc2ccc(CBr)cc2)cc1
232 to 233 °C | c1ccc(C(CCOc2ccc(-c3nnn[nH]3)cc2)(c2ccccc2)c2ccccc2)cc1
211 to 214 °C | O=C(NS(=O)(=O)c1ccc(Cl)cc1)N1CC(c2ccccc2)C(c2ccc(Cl)cc2)=N1 (stereo not drawn)
108 to 109 °C | CC(C)(C)NC(=O)C1C(C=C(Cl)Cl)C1(C)C (stereo not drawn)
158 to 160 °C | Cc1ccc(C(=O)NCC(O)CO)cc1-n1c(C)cc(OCc2ccccc2CNC(=O)Nc2cc(C(C)(C)C)nn2-c2cccc(OCCO)c2)c(Cl)c1=O (stereo not drawn)
326 to 328 °C | O=c1c2c[nH]c3ccccc3c-2nn1-c1ccccc1
205 to 206 °C | O=C(O)C1=Cc2cc(-c3ccc(Cl)s3)ccc2OC1C(F)(F)F (stereo not drawn)
104 °C | CSc1c(C=O)c(=O)n(C)c(=O)n1C
128 to 130 °C | CC(C)c1cc(C(C)(C)C)cc(C=O)c1O
211 to 213 °C | CC(C)C(=O)NCc1ccc(-c2csc(N=C(N)N)n2)o1

melting point | Compound
124 to 126 °C | CCCN1C(=O)N2CC(CC)N=C2c2c1ncn2C (stereo not drawn)
164 to 165 °C | CCOC(=O)c1cn(-c2cccc(O)c2)cn1
121 to 124 °C | O=C(Cc1ccccc1)NN(C1=NCCS1)c1ccccc1
140 to 145 °C | CN(C)CC(C)(C)Oc1ccc(Nc2cc(-c3cccc(-n4ncc5cc(C(C)(C)C)cc(F)c5c4=O)c3CO)nn(C)c2=O)nn1
232 to 235 °C | O=C(Nc1c(F)cccc1F)c1c(O)ccn2c1nc1ccccc12
146 to 153 °C | CS(=O)(=O)N[C@@H]1CCCC[C@H]1Nc1nc(Nc2ccc3c(c2)CCC(=O)CC3)ncc1Cl
200 to 201 °C | CN1CCN(Cc2nnc(S)n2Cc2cc(F)cc(F)c2)CC1
78 to 80 °C | BrCCCOc1ccc(OCCCBr)cc1
264 °C | CC(=O)NC(C)C(C)n1ncn(-c2ccc(N3CCN(c4ccc(O)cc4)CC3)cc2)c1=O (stereo not drawn)
70 °C | CC(=O)OC1CCc2cc(N(C(C)=O)S(C)(=O)=O)c(Oc3ccccc3)cc21 (stereo not drawn)
40 to 42 °C | C=C(C)C(=O)OCCOC(=O)C(=O)OCc1ccc(OCc2ccccc2)cc1
164 to 165 °C | CS(=O)(=O)c1cccc(C2=C(C3CCCC3)CCC2=NO)c1
68 to 71 °C | COc1ccc(-c2cc3ccccc3n2C(C)=O)cc1
165 to 168 °C | CCCCCCCCCCCCSc1ccc2c(c1)C(=O)c1c(c(Oc3ccccc3)c3ccccc3c1Oc1ccccc1)C2=O
146 to 148 °C | Fc1ccc(NC(=S)Nc2ncccc2OCc2c(F)cccc2Cl)cc1
44 to 45 °C | CCOC(=O)C(Oc1ccc(-c2ccc(Cl)cc2)cc1)(C(F)(F)F)C(F)(F)F
232 to 233 °C | CNC(=O)C(Cc1ccc(OC)cc1)NC(=O)Nc1n[nH]c(=S)s1 (stereo not drawn)
115 °C | COC(=O)CSc1ccc2ccc(Oc3c(Cl)cc(C(F)(F)F)cc3OC)cc2c1
162 °C | OCC1OC(c2ccc(F)c(Cc3ccc(-c4nccs4)s3)c2)C(O)C(O)C1O (stereo not drawn)
55 to 57 °C | COc1cc(C(=O)N2CCC(CCN3CCC(C(=O)c4nc5ccccc5n4Cc4ccc(F)cc4)CC3)(c3ccc(C(F)(F)F)cc3)C2)cc(OC)c1OC (stereo not drawn)
121 to 123 °C | O=[N+]([O-])c1cn(-c2cccnc2)nc1C(F)(F)F
149 to 150 °C | CN1CCCC(Nc2ccnc3cc(Cl)ccc23)C1 (racemic)
227 to 228 °C | O=C1CCC2=C(CCc3cc(Br)ccc32)N1

Compound | melting point
O=S(=O)(c1ccccc1)N(CCCN1CC=C(c2ccccc2)CC1)c1ccccc1 | 112 °C
Cc1nc2cc(NC(=O)c3cc4cc(F)cnc4n3Cc3ccncc3)ccc2n1C | 263 to 265 °C
NCc1nc(-c2ncn3c2[C@@H]2CCN2C(=O)c2cc(F)ccc2-3)no1 | 195 to 198 °C
N#Cc1nn(-c2c(Cl)cc(C(F)(F)F)cc2Cl)c(N)c1-c1ccoc1Cl | 153 °C
Cn1c2ccccc2c2c(=O)n([C@@H]3CN4CCC3CC4)ccc21 | 251 to 252 °C
C(#Cc1ccc2[nH]ccc2c1)CCN1CC=C(c2ccccc2)CC1 | 173 to 174 °C
